Results taken from US9157905B2, “Method for identifying oncogene, method for establishing oncogene-expressing cell, and method of screening oncogene targeting drug” (FUJIREBIO INC., priority 2010, dated 2015).

What was measured:
[1] = tested on: PDGFRα V561D gene-introduced cells (PC-9); assay: MTS assay of living cells, PDGFRα V561D gene-introduced PC-9 cells cultured 72 hours with drug; type: cell-based, human
Experimental: (§1) PC-9 cells or cells obtained by introducing the oncogene, the PDGFRα V561D gene into PC-9 cells in Example 4 were seeded in a 96-well plate. The cells were cultured for 72 hours in medium containing gefitinib at various concentrations, and then living cells were quantified by an MTS assay.
The cells obtained by introducing the PDGFRα V561D gene into PC-9 cells in Example 4 were seeded in a 96-well plate. The cells were cultured in medium containing a PDGFRα inhibitor, imatinib at various concentrations or medium containing 1 μM gefitinib and imatinib at various concentrations for 72 hours, and then living cells were quantified by the MTS assay.

PC-9 cells = assay: MTS assay of living cells, PC-9 cells cultured 72 hours with drug; type: cell-based, human; details: gefitinib at various concentrations, FIG. 5
Experimental: as §1

| Compound | proliferation of the PDGFRα V561D gene-introduced cells ([1]; imatinib at various concentrations in the presence of 1 μM gefitinib, FIG. 6) | proliferation of PC-9 cells (PC-9 cells) | proliferation of the PDGFRα V561D gene-introduced cells ([1]; gefitinib at various concentrations, FIG. 5) | proliferation of the PDGFRα V561D gene-introduced cells ([1]; in the presence of 1 μM gefitinib (medium with imatinib at various concentrations), FIG. 6) |
| --- | --- | --- | --- | --- |
| Cc1ccc(NC(=O)c2ccc(CN3CCN(C)CC3)cc2)cc1Nc1nccc(-c2cccnc2)n1 [imatinib] | inhibited by the PDGFRα inhibitor, imatinib in a dose dependent manner | – | – | – |
| COc1cc2ncnc(Nc3ccc(F)c(Cl)c3)c2cc1OCCCN1CCOCC1 [gefitinib] | – | inhibited by gefitinib in a dose dependent manner | not inhibited | inhibited in the presence of 1 μM gefitinib |
